In ChEMBL document CHEMBL3880386, “Combination comprising the MEK inhibitor N-{3-[3-cyclopropyl-5-(2-fluoro-4-iodo- phenylamino)-6,8-dimethyl-2,4,7-trioxo-3,4,6,7-tetrahydro-2H-pyrido[4,3-d]pyrimidin-1-yl]phenyl}acetamide and the Akt inhibitor N-{(1S)-2-amino-1-[(3-fluorophenyl)methyl]ethyl}-5-chloro-4-(4-chloro-1- …” (2014):

Assays:
[1] = Growth inhibition of human MDA-MB-175-VII cells incubated for 72 hrs by Cell-titer-Glo reagent based assay; format: functional
[2] = Growth inhibition of human EFM19 cells incubated for 72 hrs by Cell-titer-Glo reagent based assay; format: functional; settings: EFM-19, 72 h
[3] = Growth inhibition of human RKO cells incubated for 72 hrs by Cell-titer-Glo reagent based assay; format: functional
[4] = Growth inhibition of human DLD1 cells incubated for 72 hrs by Cell-titer-Glo reagent based assay; format: functional; settings: DLD-1, 72 h
[5] = Growth inhibition of human T84 cells incubated for 72 hrs by Cell-titer-Glo reagent based assay; format: functional; settings: T84, 72 h
[6] = Growth inhibition of human KM12 cells incubated for 72 hrs by Cell-titer-Glo reagent based assay; format: functional; settings: KM12, 72 h
[7] = Growth inhibition of human SW837 cells incubated for 72 hrs by Cell-titer-Glo reagent based assay; format: functional; settings: SW837, 72 h
[8] = Growth inhibition of human LS1034 cells incubated for 72 hrs by Cell-titer-Glo reagent based assay; format: functional; settings: LS-1034, 72 h
[9] = Growth inhibition of human COLO205 cells incubated for 72 hrs by Cell-titer-Glo reagent based assay; format: functional; settings: COLO 205, 72 h
[10] = Growth inhibition of human SW1463 cells incubated for 72 hrs by Cell-titer-Glo reagent based assay; format: functional; settings: SW1463, 72 h
[11] = Growth inhibition of human HT-29 cells incubated for 72 hrs by Cell-titer-Glo reagent based assay; format: functional; settings: HT-29, 72 h
[12] = Growth inhibition of human SW480 cells incubated for 72 hrs by Cell-titer-Glo reagent based assay; format: functional; settings: SW480, 72 h
[13] = Growth inhibition of human SW1417 cells incubated for 72 hrs by Cell-titer-Glo reagent based assay; format: functional; settings: SW1417, 72 h
[14] = Growth inhibition of human A549 cells incubated for 72 hrs by Cell-titer-Glo reagent based assay; format: functional; settings: A549, 72 h
[15] = Growth inhibition of human NCI-H1355 cells incubated for 72 hrs by Cell-titer-Glo reagent based assay; format: functional; settings: NCI-H1355, 72 h
[16] = Growth inhibition of human NCI-H1792 cells incubated for 72 hrs by Cell-titer-Glo reagent based assay; format: functional; settings: NCI-H1792, 72 h
[17] = Growth inhibition of human NCI-H23 cells incubated for 72 hrs by Cell-titer-Glo reagent based assay; format: functional; settings: NCI-H23, 72 h
[18] = Growth inhibition of human MV522 cells incubated for 72 hrs by Cell-titer-Glo reagent based assay; format: functional; settings: MV522, 72 h
[19] = Growth inhibition of human NCI-H1155 cells incubated for 72 hrs by Cell-titer-Glo reagent based assay; format: functional; settings: NCI-H1155, 72 h
[20] = Growth inhibition of human SW1573 cells incubated for 72 hrs by Cell-titer-Glo reagent based assay; format: functional; settings: SW1573, 72 h
[21] = Growth inhibition of human HOP62 cells incubated for 72 hrs by Cell-titer-Glo reagent based assay; format: functional; settings: HOP-62, 72 h
[22] = Growth inhibition of human SW900 cells incubated for 72 hrs by Cell-titer-Glo reagent based assay; format: functional; settings: SW900, 72 h
[23] = Growth inhibition of human A427 cells incubated for 72 hrs by Cell-titer-Glo reagent based assay; format: functional; settings: A-427, 72 h
[24] = Growth inhibition of human HCC827 cells incubated for 72 hrs by Cell-titer-Glo reagent based assay; format: functional; settings: HCC827, 72 h
[25] = Growth inhibition of human Calu3 cells incubated for 72 hrs by Cell-titer-Glo reagent based assay; format: functional; settings: Calu-3, 72 h
[26] = Growth inhibition of human NCI-H727 cells incubated for 72 hrs by Cell-titer-Glo reagent based assay; format: functional; settings: NCI-H727, 72 h
[27] = Growth inhibition of human SW1573 cells at 1:10 molar ratio of compound in presence of N-{(1S)-2-amino-1-[(3-fluorophenyl)methyl]ethyl}-5-chloro-4-(4-chloro-1-methyl-1H-pyrazol-5-yl)-2-thiophenecar- boxamide incubated for 72 hrs by Cell-titer-Glo reagent based assay; format: functional; settings: SW1573, 72 h
[28] = Growth inhibition of human NCI-H727 cells at 1:10 molar ratio of compound in presence of N-{(1S)-2-amino-1-[(3-fluorophenyl)methyl]ethyl}-5-chloro-4-(4-chloro-1-methyl-1H-pyrazol-5-yl)-2-thiophenecar- boxamide incubated for 72 hrs by Cell-titer-Glo reagent based assay; format: functional; settings: NCI-H727, 72 h
[29] = Growth inhibition of human HT-29 cells assessed combination index at 1:10 molar ratio of compound in presence of N-{(1S)-2-amino-1-[(3-fluorophenyl)methyl]ethyl}-5-chloro-4-(4-chloro-1-methyl-1H-pyrazol-5-yl)-2-thiophenecar- boxamide incubated for 72 hrs by Cell-titer-Glo reagent based assay; format: functional
[30] = Growth inhibition of human NCI-H1792 cells assessed combination index at 1:10 molar ratio of compound in presence of N-{(1S)-2-amino-1-[(3-fluorophenyl)methyl]ethyl}-5-chloro-4-(4-chloro-1-methyl-1H-pyrazol-5-yl)-2-thiophenecar- boxamide incubated for 72 hrs by Cell-titer-Glo reagent based assay; format: functional
[31] = Growth inhibition of human Calu6 cells assessed combination index at 1:10 molar ratio of compound in presence of N-{(1S)-2-amino-1-[(3-fluorophenyl)methyl]ethyl}-5-chloro-4-(4-chloro-1-methyl-1H-pyrazol-5-yl)-2-thiophenecar- boxamide incubated for 72 hrs by Cell-titer-Glo reagent based assay; format: functional, Calu-6
[32] = (§1) Growth inhibition of human EFM19 cells at 1:10 molar ratio of compound in presence of N-{3-[3-cyclopropyl-5-(2-fluoro-4-iodo-phenylamino)-6,8-dimethyl- 2,4,7-trioxo-3,4,6,7-tetrahydro-2H-pyrido[4,3-d]pyrimidin-1-yl]phenyl}acetamide incubated for 72 hrs by Cell-titer-Glo reagent based assay; format: functional; settings: EFM-19, 72 h
[33] = Growth inhibition of human DLD1 cells at 1:10 molar ratio of compound in presence of N-{3-[3-cyclopropyl-5-(2-fluoro-4-iodo-phenylamino)-6,8-dimethyl- 2,4,7-trioxo-3,4,6,7-tetrahydro-2H-pyrido[4,3-d]pyrimidin-1-yl]phenyl}acetamide incubated for 72 hrs by Cell-titer-Glo reagent based assay; format: functional; settings: DLD-1, 72 h
[34] = Growth inhibition of human KM12 cells at 1:10 molar ratio of compound in presence of N-{3-[3-cyclopropyl-5-(2-fluoro-4-iodo-phenylamino)-6,8-dimethyl- 2,4,7-trioxo-3,4,6,7-tetrahydro-2H-pyrido[4,3-d]pyrimidin-1-yl]phenyl}acetamide incubated for 72 hrs by Cell-titer-Glo reagent based assay; format: functional; settings: KM12, 72 h
[35] = as §1, with “SW1463” for “EFM19”, “cells assessed combination index” for “cells”; format: functional
[36] = Growth inhibition of human HT-29 cells assessed combination index at 1:10 molar ratio of compound in presence of N-{3-[3-cyclopropyl-5-(2-fluoro-4-iodo-phenylamino)-6,8-dimethyl- 2,4,7-trioxo-3,4,6,7-tetrahydro-2H-pyrido[4,3-d]pyrimidin-1-yl]phenyl}acetamide incubated for 72 hrs by Cell-titer-Glo reagent based assay; format: functional

SMILES | IC50 [1] [µM] | IC50 [2] [µM] | IC50 [3] [µM] | IC50 [4] [µM] | IC50 [5] [µM] | IC50 [6] [µM] | IC50 [7] [µM] | IC50 [8] [µM] | IC50 [9] [µM] | IC50 [10] [µM] | IC50 [11] [µM] | IC50 [12] [µM] | IC50 [13] [µM] | IC50 [14] [µM] | IC50 [15] [µM] | IC50 [16] [µM] | IC50 [17] [µM] | IC50 [18] [µM] | IC50 [19] [µM] | IC50 [20] [µM] | other results
CC(=O)Nc1cccc(-n2c(=O)n(C3CC3)c(=O)c3c(Nc4ccc(I)cc4F)n(C)c(=O)c(C)c32)c1 [TRAMETINIB] | 0.096 | > 1 | 0.018 | 0.632 | 0.061 | 0.023 | 0.074 | 0.005 | 0.001 | 0.004 | 0.002 | 0.037 | 0.003 | 0.034 | 0.052 | 0.053 | 0.029 | 0.002 | > 1 | > 1 | IC50 [21]: > 1 µM; IC50 [22]: 0.127 µM; IC50 [23]: 0.022 µM; IC50 [24]: > 1 µM; IC50 [25]: 0.158 µM; IC50 [26]: 0.002 µM; IC50 [27]: 0.038 µM; IC50 [28]: 0.002 µM; CI [29]: 0.95; CI [30]: 0.73; CI [31]: 0.79
Cn1ncc(Cl)c1-c1cc(C(=O)N[C@H](CN)Cc2cccc(F)c2)sc1Cl [AFURESERTIB] | 0.794 | 0.43 | 1.81 | > 10 | > 10 | 2.25 | > 10 | 4.34 | 2.57 | 9.72 | 1.38 | > 10 | > 10 | 5.99 | 6.69 | 7.31 | 7.12 | 3.04 | 0.865 | > 8 | IC50 [21]: > 10 µM; IC50 [22]: > 10 µM; IC50 [23]: > 8 µM; IC50 [24]: > 8 µM; IC50 [25]: > 8 µM; IC50 [26]: 4.8 µM; IC50 [32]: 0.3 µM; IC50 [33]: 0.932 µM; IC50 [34]: 0.104 µM; CI [35]: 0.94; CI [36]: 0.95
